Test results published in patent US20050282159A1, “Rpob gene of streptomyces, primer specific to streptomyces, and identification method of streptomyces having rifampin resistance or sensitivity by using the same” (priority 2001, published 2005).

Legend:
[1] = test system: S. indigoferus KCCM 40495; settings: TCG (TCC) genotype
Protocol: (§1) The primer sets of SEQ ID NOs: 1 and 2 were used to amplify rpoB genes of 60 strains, and nucleotides of the […] products were analyzed with an automatic sequencer. SRPOF1 as a forward primer and SRPOR1 as a backward primer were used.

S. erythraeus KCCM 40477 = settings: TCG (TCC) genotype
Protocol: as §1

[2] = test system: S. coerulescens KCCM 40508; settings: TCG (TCC) genotype
Protocol: as §1

S. coelescens KCCM 40742 = settings: AAC genotype
Protocol: as §1

[3] = test system: S. amakusaensis KCTC 9753; settings: TCG (TCC) genotype
Protocol: as §1

[4] = test system: S. cyaneofuscatus KCCM 40517; settings: TCG (TCC) genotype
Protocol: as §1

S. umbrinus KCCM 40316 = settings: AAC genotype
Protocol: as §1

S. erumpens KCTC 9729 = settings: TCG (TCC) genotype
Protocol: as §1

S. murinus KCTC 9492 = settings: AAC genotype
Protocol: as §1

S. carpinensis KCTC 9128 [5] = settings: TCG (TCC) genotype
Protocol: as §1

[6] = test system: S. griseoruber KCCM 40658; settings: TCG (TCC) genotype
Protocol: as §1

[7] = test system: S. griseoflavus KCCM 12624; settings: AAC genotype
Protocol: as §1

[8] = test system: S. aureufaciens KCCM 40127; settings: TCG (TCC) genotype
Protocol: as §1

S. albospinus KCTC 9762 = settings: TCG (TCC) genotype
Protocol: as §1

S. galilaeus KCTC 1919 = assay: rifampin-sensitive test on Bennet solid media; assay type: cell-based; set-up: key: “(+)” indicates a genotype with rifampin-resistance; “(−)” indicates a genotype with rifampin-susceptibility; settings: AAC genotype, 25 ug/ml rifampin, 72 hr
Protocol: (§2) The 47 strains were respectively cultured at 28° C. for 72 hr in Bennet liquid media. The culture solution was then inoculated on Bennet solid media (yeast extract 1 g/L, Beef extract 1 g/L, Tryptone 2 g/L, Glycerol 10 g/L, Agar 15 g/L) containing 25 ug/ml rifampin, and after incubation for 72 hr, rifampin-resistance was tested.

S. spectabilis KCTC 9218 = assay: rifampin-sensitive test on Bennet solid media; assay type: cell-based; set-up: key: “(+)” indicates a genotype with rifampin-resistance; “(−)” indicates a genotype with rifampin-susceptibility; settings: AAC genotype, 25 ug/ml rifampin, 72 hr
Protocol: as §2

S. avidinii KCTC 9757 = assay: rifampin-sensitive test on Bennet solid media; assay type: cell-based; set-up: key: “(+)” indicates a genotype with rifampin-resistance; “(−)” indicates a genotype with rifampin-susceptibility; settings: AAC genotype, 25 ug/ml rifampin, 72 hr
Protocol: as §2

[9] = test system: S. albogriseolus KCTC 9773; assay: rifampin-sensitive test on Bennet solid media; assay type: cell-based; set-up: key: “(+)” indicates a genotype with rifampin-resistance; “(−)” indicates a genotype with rifampin-susceptibility; settings: AAC genotype, 25 ug/ml rifampin, 72 hr
Protocol: as §2

[10] = test system: S. celluloflavus KCTC 9702; assay: rifampin-sensitive test on Bennet solid media; assay type: cell-based; set-up: key: “(+)” indicates a genotype with rifampin-resistance; “(−)” indicates a genotype with rifampin-susceptibility; settings: TCG (TCC) genotype, 25 ug/ml rifampin, 72 hr
Protocol: as §2

[11] = test system: S. achromogenes KCTC 1740; assay: rifampin-sensitive test on Bennet solid media; assay type: cell-based; set-up: key: “(+)” indicates a genotype with rifampin-resistance; “(−)” indicates a genotype with rifampin-susceptibility; settings: TCG (TCC) genotype, 25 ug/ml rifampin, 72 hr
Protocol: as §2

S. flavofuscus KCTC 9737 = assay: rifampin-sensitive test on Bennet solid media; assay type: cell-based; set-up: key: “(+)” indicates a genotype with rifampin-resistance; “(−)” indicates a genotype with rifampin-susceptibility; settings: AAC genotype, 25 ug/ml rifampin, 72 hr
Protocol: as §2

S. pulveraceus KCTC 9766 = assay: rifampin-sensitive test on Bennet solid media; assay type: cell-based; set-up: key: “(+)” indicates a genotype with rifampin-resistance; “(−)” indicates a genotype with rifampin-susceptibility; settings: AAC genotype, 25 ug/ml rifampin, 72 hr
Protocol: as §2

[12] = test system: S. cinnamonensis KCTC 9708; assay: rifampin-sensitive test on Bennet solid media; assay type: cell-based; set-up: key: “(+)” indicates a genotype with rifampin-resistance; “(−)” indicates a genotype with rifampin-susceptibility; settings: TCG (TCC) genotype, 25 ug/ml rifampin, 72 hr
Protocol: as §2

S. carpinensis KCTC 9128 [13] = assay: rifampin-sensitive test on Bennet solid media; assay type: cell-based; set-up: key: “(+)” indicates a genotype with rifampin-resistance; “(−)” indicates a genotype with rifampin-susceptibility; settings: TCG (TCC) genotype, 25 ug/ml rifampin, 72 hr
Protocol: as §2

S. acrimycini KCTC 9679 = assay: rifampin-sensitive test on Bennet solid media; assay type: cell-based; set-up: key: “(+)” indicates a genotype with rifampin-resistance; “(−)” indicates a genotype with rifampin-susceptibility; settings: AAC genotype, 25 ug/ml rifampin, 72 hr
Protocol: as §2

[14] = test system: S. phaeochromogenes KCTC 9763; assay: rifampin-sensitive test on Bennet solid media; assay type: cell-based; set-up: key: “(+)” indicates a genotype with rifampin-resistance; “(−)” indicates a genotype with rifampin-susceptibility; settings: AAC genotype, 25 ug/ml rifampin, 72 hr
Protocol: as §2

[15] = test system: S. capillispiralis KCTC 1719; assay: rifampin-sensitive test on Bennet solid media; assay type: cell-based; set-up: key: “(+)” indicates a genotype with rifampin-resistance; “(−)” indicates a genotype with rifampin-susceptibility; settings: AAC genotype, 25 ug/ml rifampin, 72 hr
Protocol: as §2

[16] = test system: S. antimycoticus KCTC 9694; assay: rifampin-sensitive test on Bennet solid media; assay type: cell-based; set-up: key: “(+)” indicates a genotype with rifampin-resistance; “(−)” indicates a genotype with rifampin-susceptibility; settings: TCG (TCC) genotype, 25 ug/ml rifampin, 72 hr
Protocol: as §2

[17] = test system: S. cuspidosporus KCTC 9718; assay: rifampin-sensitive test on Bennet solid media; assay type: cell-based; set-up: key: “(+)” indicates a genotype with rifampin-resistance; “(−)” indicates a genotype with rifampin-susceptibility; settings: AAC genotype, 25 ug/ml rifampin, 72 hr
Protocol: as §2

S. ederensis KCTC 9726 = assay: rifampin-sensitive test on Bennet solid media; assay type: cell-based; set-up: key: “(+)” indicates a genotype with rifampin-resistance; “(−)” indicates a genotype with rifampin-susceptibility; settings: AAC genotype, 25 ug/ml rifampin, 72 hr
Protocol: as §2

[18] = test system: S. griseus griseus KCTC 9080; assay: rifampin-sensitive test on Bennet solid media; assay type: cell-based; set-up: key: “(+)” indicates a genotype with rifampin-resistance; “(−)” indicates a genotype with rifampin-susceptibility; settings: AAC genotype, 25 ug/ml rifampin, 72 hr
Protocol: as §2

S. argenteolus KCTC 9695 = assay: rifampin-sensitive test on Bennet solid media; assay type: cell-based; set-up: key: “(+)” indicates a genotype with rifampin-resistance; “(−)” indicates a genotype with rifampin-susceptibility; settings: TCG (TCC) genotype, 25 ug/ml rifampin, 72 hr
Protocol: as §2

CO[C@H]1/C=C/O[C@@]2(C)Oc3c(C)c(O)c4c(O)c(c(/C=N/N5CCN(C)CC5)c(O)c4c3C2=O)NC(=O)/C(C)=C\C=C\[C@H](C)[C@H](O)[C@@H](C)[C@@H](O)[C@@H](C)[C@H](OC(C)=O)[C@@H]1C [rifampin]
genotype (rifampin-resistant or -sensitive strain) [1]: −
genotype (rifampin-resistant or -sensitive strain) (S. erythraeus KCCM 40477): −
genotype (rifampin-resistant or -sensitive strain) [2]: −
genotype (rifampin-resistant or -sensitive strain) (S. coelescens KCCM 40742): +
genotype (rifampin-resistant or -sensitive strain) [3]: −
genotype (rifampin-resistant or -sensitive strain) [4]: −
genotype (rifampin-resistant or -sensitive strain) (S. umbrinus KCCM 40316): +
genotype (rifampin-resistant or -sensitive strain) (S. erumpens KCTC 9729): −
genotype (rifampin-resistant or -sensitive strain) (S. murinus KCTC 9492): +
genotype (rifampin-resistant or -sensitive strain) (S. carpinensis KCTC 9128 [5]): −
genotype (rifampin-resistant or -sensitive strain) [6]: −
genotype (rifampin-resistant or -sensitive strain) [7]: +
genotype (rifampin-resistant or -sensitive strain) [8]: −
genotype (rifampin-resistant or -sensitive strain) (S. albospinus KCTC 9762): −
genotype (rifampin-resistance or susceptibility) (S. galilaeus KCTC 1919): +
genotype (rifampin-resistance or susceptibility) (S. spectabilis KCTC 9218): +
genotype (rifampin-resistance or susceptibility) (S. avidinii KCTC 9757): +
genotype (rifampin-resistance or susceptibility) [9]: +
genotype (rifampin-resistance or susceptibility) [10]: −
genotype (rifampin-resistance or susceptibility) [11]: −
genotype (rifampin-resistance or susceptibility) (S. flavofuscus KCTC 9737): +
genotype (rifampin-resistance or susceptibility) (S. pulveraceus KCTC 9766): +
genotype (rifampin-resistance or susceptibility) [12]: −
genotype (rifampin-resistance or susceptibility) (S. carpinensis KCTC 9128 [13]): −
genotype (rifampin-resistance or susceptibility) (S. acrimycini KCTC 9679): +
genotype (rifampin-resistance or susceptibility) [14]: +
genotype (rifampin-resistance or susceptibility) [15]: +
genotype (rifampin-resistance or susceptibility) [16]: −
genotype (rifampin-resistance or susceptibility) [17]: +
genotype (rifampin-resistance or susceptibility) (S. ederensis KCTC 9726): +
genotype (rifampin-resistance or susceptibility) [18]: +
genotype (rifampin-resistance or susceptibility) (S. argenteolus KCTC 9695): −
